# Measured values from US20210393570A1, “THERAPEUTICAL COMPOSITIONS FOR USE IN THE TREATMENT OF NON-MALIGNANT CONDITIONS ASSOCIATED WITH PHOSPHATIDYLINOSITOL-3-KINASE ACTIVATION: OVERGROWTH SPECTRUM, CUTANEOUS CAPILLARY MALFORMATIONS AND SEBORRHEIC KERATOSES” (UNIVERSITÉ DE BOURGOGNE, priority 2017, published 2021).
# Legend:
# HSF1 = test: Immunoblotting of HSF1 phosphorylation in fibroblasts; assay type: cell-based, human; details: insulin added to normal fibroblasts; FIG. 2A
# AKT = test: Immunoblotting of AKT phosphorylation in fibroblasts; assay type: cell-based, human; details: treatment with insulin; FIG. 2A
# patient A fibroblasts [1] = test: Quantitative PCR of 74 genes known to be regulated by HSF1; assay type: cell-based, human; details: two independent experiments, FIG. 2D
# Source text: (D) Quantitative PCR analysis of the expression of 74 genes belonging to a cancer-related gene signature in patient A fibroblasts after treatment with LY294002. A code with different patterns is used to illustrate the intensity of the increase (gradient of grey) or decrease (shading pattern) of gene expression compared to untreated cells;
# The Inventors have further investigated whether the PI3K/AKT/mTOR pathway is directly responsible for the activation of HSF1 in the fibroblasts of patients. The induction of PI3K/AKT activating pathway by adding insulin to normal fibroblasts is well known. […] To test this hypothesis, the expression of 74 known genes to be regulated by HSF1 have been determined after treatment with the PI3K inhibitor (FIG. 2D). In two independent experiments, the expression of 47 genes is inhibited while the expression of 11 genes is increased. The results are variable for 12 other genes (increase and decrease). […] Thus, a large part of a HSF1-dependent gene signature can be inhibited by the blocking of PI3K and thus confirms the link between these two pathways in the syndrome of segmental hypertrophy PIK3CA dependent.
# [2] = tested on: fibroblasts of patients and healthy donors; test: Fibroblast apoptosis measured by cell death detection ELISA kit; assay type: cell-based; details: 24 h treatment; 3 μM Kribb11 or 10 nM Triptolide; FIG. 3E
# Description: (§1) FIG. 3 Cell viability measured by XTT labeling after 48 h of treatment by 10 μM LY294002 or by increasing doses of Triptolide (A), by 4 ng/ml Rapamycin (B) or increasing doses of Kribb11. For each experiment: control 1 (white bar), control 2 (hatched bar), patient B (grey bar), patient A (black bar). n=3. O.D.=optical density. (C) Number of cells after 48 h treatment for patient A. (D) Cell proliferation measured by incorporation of BrdU. O.D.=optical density. (E) Fibroblasts apoptosis of patients and healthy donors measured by a cell death detection ELISA kit, after 24 h treatment with 100 ng/ml rapamycin, 10 μM LY294002, 3 μM Kribb11 or 10 nM Triptolide. 1 μM of staurosporine was used as an inducer of apoptosis and as positive control of the experiment, n=3. O.D.=optical density. *p<0.05, **p<0.01, ***p<0.005.
# patient A fibroblasts [3] = test: Number of cells after 48 h treatment; assay type: cell-based, human; details: compared with PI3K or mTOR inhibitors, FIG. 3C
# Description: as §1
# [4] = tested on: fibroblasts from patients; test: Cell viability measured by XTT labeling; assay type: cell-based, human; details: 48 h treatment, increasing doses; compared with PI3K or mTOR inhibitors; FIG. 3A, 3B
# Description: as §1
# [5] = tested on: fibroblasts from patients; test: Cell proliferation measured by incorporation of BrdU; assay type: cell-based, human; details: FIG. 3D
# Description: as §1
molecule,measurement,setting,value
insulin,phosphorylation of HSF1,HSF1,induction of the phosphorylation of HSF1
same,phosphorylation of AKT,AKT,induces the phosphorylation of AKT
O=c1cc(N2CCOCC2)oc2c(-c3ccccc3)cccc12 [LY294002],number of HSF1-regulated genes whose expression is increased,patient A fibroblasts [1],11 genes
same,number of HSF1-regulated genes whose expression is inhibited,patient A fibroblasts [1],47 genes
same,number of HSF1-regulated genes with variable results (increase and decrease),patient A fibroblasts [1],12 genes
CC(C)[C@]12O[C@H]1[C@@H]1O[C@]13[C@]1(O[C@H]1C[C@H]1C4=C(CC[C@@]13C)C(=O)OC4)[C@@H]2O [Triptolide],cell mortality (apoptosis),[2],not associated with an increase in cell mortality
same,number of total cells,patient A fibroblasts [3],reduction
same,"cell growth (cell viability, XTT)",[4],reduction in cell growth
CNc1ccc([N+](=O)[O-])c(Nc2ccc3[nH]ncc3c2)n1 [Kribb11],increase in the % of cells entering the S phase,[5],completely blocked
same,number of total cells,patient A fibroblasts [3],reduction
same,"cell growth (cell viability, XTT)",[4],reduction in cell growth
